Laboratory results taken from US20260000656A1, “ANTIFUNGAL AGENTS WITH ENHANCED ACTIVITY IN ACIDIC PH” (Scynexis, Inc., priority 2017, published 2026).
Like-named read-outs stand apart in the source and are kept apart here.

Tested on: C. albicans isolates
Assay: Broth microdilution susceptibility (CLSI M27-A3) at different medium pH
Format: cell-based, Candida albicans
Conditions: Candida albicans, 24 h; for MIC50: read-out: MIC50; for MIC90: read-out: MIC90
Method: Ten strains each of C. glabrata and C. albicans vaginal isolates were tested. The strains were obtained from recent clinical trial patients with vulvovaginal candidiasis (VVC) prior to treatment. Candida strains were obtained from the Mycology Reference Library (MRL) at Case Western Reserve University School of Medicine, Ohio, United States.
Susceptibility testing was performed using a broth microdilution method, according to CLSI M27-A3 guidelines (CLSI. 2008. Reference Method for Broth Dilution Antifungal Susceptibility Testing of Yeasts; Approved Standard—Third Edition. Clinical and Laboratory Standards Institute, CLSI document M27-A3). Antifungals and concentrations tested were SCY-078 and micafungin (both at concentrations within the range of 0.015 to 8 μg/ml) and fluconazole (at concentrations within the range of 0.125 to 64 μg/ml). A 0.1-ml C. albicans and C. glabrata inoculum of 0.5-2.5×10^3 blastospores/ml in RPMI 1640 medium was added to each microdilution well. ATCC strains of Candida parapsilosis and Candida krusei QC isolates were also included concurrently to ensure quality control. Antifungal susceptibility testing was carried out for each isolate in RPMI 1640 at pH 7 (to mimic RPMI medium used in testing the susceptibility of yeast by the CLSI M-27A3 document), pH 5.7, and pH 4.5 (to mimic the pH of the vaginal cavity) by adjusting the pH of the media using NaOH or HCl. […] Agents Chemother., 43: 1383-1386 (1999).
[…] SCY-078 powder was manufactured by Avista, Laboratories, NC. Micafungin and fluconazole were sourced from LGM Pharma.

[1] = pH 7, 50% inhibition, pH 7.0, 24 h, 10 vaginal isolates
[2] = pH 7, 100% inhibition, pH 7.0, 24 hours, 10 isolates

CC(C)[C@@H](C)[C@@]1(C)CC[C@]2(C)[C@H]3CC[C@@H]4[C@@]5(COC[C@]4(C)[C@@H](OC[C@](C)(N)C(C)(C)C)[C@H](n4ncnc4-c4ccncc4)C5)C3=CC[C@@]2(C)[C@@H]1C(=O)O [SCY-078]
4 µg/mL: MIC (pH 7, C. albicans MRL 34408, pH 7.0, 24 hours, read-out: MIC (100% inhibition))
2 µg/mL: MIC (pH 5.72, C. albicans MRL 34408, pH 5.72, 24 hours, read-out: MIC (100% inhibition))
0.5 µg/mL: MIC (pH 5.72, C. albicans MRL 34367, pH 5.72, 24 hours, read-out: MIC (100% inhibition)) | MIC (pH 5.72, C. albicans MRL 34385, pH 5.72, 24 hours, read-out: MIC (100% inhibition)) | MIC90 [1] | MIC90 [2] | MIC (pH 7, C. albicans MRL 34366, pH 7.0, 24 hours, read-out: MIC (50% inhibition)) | MIC (pH 7, C. albicans MRL 34366, pH 7.0, 24 hours, read-out: MIC (100% inhibition)) | MIC (pH 7, C. albicans MRL 34367, pH 7.0, 24 hours, read-out: MIC (100% inhibition)) | MIC (pH 7, C. albicans MRL 34385, pH 7.0, 24 hours, read-out: MIC (100% inhibition)) | MIC (pH 7, C. albicans MRL 34408, pH 7.0, 24 hours, read-out: MIC (50% inhibition))
0.25 µg/mL: MIC (pH 5.72, C. albicans MRL 34372, pH 5.72, 24 hours, read-out: MIC (50% inhibition)) | MIC (pH 5.72, C. albicans MRL 34372, pH 5.72, 24 hours, read-out: MIC (100% inhibition)) | MIC (pH 5.72, C. albicans MRL 34373, pH 5.72, 24 hours, read-out: MIC (50% inhibition)) | MIC (pH 5.72, C. albicans MRL 34373, pH 5.72, 24 hours, read-out: MIC (100% inhibition)) | MIC (pH 5.72, C. albicans MRL 34374, pH 5.72, 24 hours, read-out: MIC (100% inhibition)) | MIC (pH 5.72, C. albicans MRL 34385, pH 5.72, 24 hours, read-out: MIC (50% inhibition)) | MIC (pH 5.72, C. albicans MRL 34389, pH 5.72, 24 hours, read-out: MIC (50% inhibition)) | MIC (pH 5.72, C. albicans MRL 34389, pH 5.72, 24 hours, read-out: MIC (100% inhibition)) | MIC (pH 5.72, C. albicans MRL 34399, pH 5.72, 24 hours, read-out: MIC (50% inhibition)) | MIC (pH 5.72, C. albicans MRL 34399, pH 5.72, 24 hours, read-out: MIC (100% inhibition)) | MIC (pH 5.72, C. albicans MRL 34408, pH 5.72, 24 hours, read-out: MIC (50% inhibition)) | MIC (pH 5.72, C. albicans MRL 34449, pH 5.72, 24 hours, read-out: MIC (50% inhibition)) | MIC (pH 5.72, C. albicans MRL 34449, pH 5.72, 24 hours, read-out: MIC (100% inhibition)) | MIC50 [1] | MIC50 [2] | MIC (pH 7, C. albicans MRL 34372, pH 7.0, 24 hours, read-out: MIC (50% inhibition)) | MIC (pH 7, C. albicans MRL 34372, pH 7.0, 24 hours, read-out: MIC (100% inhibition)) | MIC (pH 7, C. albicans MRL 34373, pH 7.0, 24 hours, read-out: MIC (50% inhibition)) | MIC (pH 7, C. albicans MRL 34373, pH 7.0, 24 hours, read-out: MIC (100% inhibition)) | MIC (pH 7, C. albicans MRL 34374, pH 7.0, 24 hours, read-out: MIC (50% inhibition)) | MIC (pH 7, C. albicans MRL 34374, pH 7.0, 24 hours, read-out: MIC (100% inhibition)) | MIC (pH 7, C. albicans MRL 34385, pH 7.0, 24 hours, read-out: MIC (50% inhibition)) | MIC (pH 7, C. albicans MRL 34389, pH 7.0, 24 hours, read-out: MIC (100% inhibition)) | MIC (pH 7, C. albicans MRL 34399, pH 7.0, 24 hours, read-out: MIC (50% inhibition)) | MIC (pH 7, C. albicans MRL 34399, pH 7.0, 24 hours, read-out: MIC (100% inhibition)) | MIC (pH 7, C. albicans MRL 34449, pH 7.0, 24 hours, read-out: MIC (50% inhibition))
0.125 µg/mL: MIC (pH 5.72, C. albicans MRL 34374, pH 5.72, 24 hours, read-out: MIC (50% inhibition)) | MIC (pH 7, C. albicans MRL 34367, pH 7.0, 24 hours, read-out: MIC (50% inhibition)) | MIC (pH 7, C. albicans MRL 34389, pH 7.0, 24 hours, read-out: MIC (50% inhibition))
